We go through one molecule from patent publication US10022373B2, “Posaconazole pharmaceutical compositions and preparation methods, uses and pharmaceutical formulations thereof” (SINOTHERAPEUTICS INC., priority 2014, dated 2018).

SMILES strings stand for the structures. Where two headings read alike, the source gives them in different places. Bounds are passed on as bounds.

The conditions of data set [1]: cited from earlier work.
The nature of data set [2]: Apparent solubility in phosphate buffer solution pH 6.8. In kind it is physicochemical. The method, then:
Weighting an excess amount of posaconazole pharmaceutical composition into a container, adding phosphate buffer solution (pH 6.8, about ⅔ of the volume of the container), and then placing the container in a shaking table at 37° C., and shaking for 3 h. Filtering the content with a 0.45 μm filter membrane, collecting the filtrate, diluting it with an appropriate amount of methanol, vortex mixing, and then determining the concentration of posaconazole via the following HPLC method: […]

Data set [3] can be described thus: Dissolution rate, USP II paddle method, simulated in vivo condition. In kind it is physicochemical. The settings on record: medium conversion pH 1.2→6.8. The protocol:
Analytical method for dissolution samples: the same as the HPLC method in the above assay of apparent solubility.
It was reported that the pH value in human stomach was about 1.2, and that in human intestine was about 6.8. The dissolution of each of the pharmaceutical compositions of the present invention was determined under a stimulated in vivo condition, and the results are shown in Table 1-3.

For the molecule `CC[C@@H]([C@H](C)O)n1ncn(-c2ccc(N3CCN(c4ccc(OC[C@@H]5CO[C@@](Cn6cncn6)(c6ccc(F)cc6F)C5)cc4)CC3)cc2)c1=O` [API, 4-[4-[4-[4-[[(3R,5R)-5-(2,4-difluorophenyl)-5-(1,2,4-triazole-1-ylmethyl)oxolan-3-yl]methoxy]phenyl]piperazin-1-yl]phenyl]-2-[(2S,3S)-2-hydroxypentan-3-yl]-1,2,4-triazol-3-one], the Solubility result was “about 0.8 mg/ml” in data set [1] (free base form, environment of the stomach pH=˜1.2) and below 1 µg/mL in data set [1] (pH higher than 4). Further, the solubility at 3 h in data set [2] (aqueous buffer, thermodynamic from solid, phosphate buffer solution pH 6.8, 37° C., shaking 3 h) was below 1 µg/mL. Moreover, the “Apparent solubility ratio (composition/API)” value in data set [2] (phosphate buffer solution pH 6.8) is reported as 1. The Dissolution in data set [3] (pH 1.2, 5 min) is on record as 89.0%; in data set [3] (pH 1.2, 10 min), 87.0%; in data set [3] (pH 1.2, 30 min) it was 98.7%; in data set [3] (pH 6.8, 60 min), 7.1%; in data set [3] (pH 6.8, 120 min), 5.6%; in data set [3] (pH 6.8, 180 min) it was 5.6%.

A word on the Solubility: it is the concentration that dissolves in the medium under given conditions. By solubility is commonly meant the dissolved amount per volume that the medium holds.
